Test system: M. tuberculosis Erdman
Test: M. tuberculosis chronic infection mouse model, CFU in the lungs
Assay type: in vivo, BALB/c mice

In the case of `[H]/N=C(/N)N[C@H]1[C@H](O)[C@@H](O)[C@H](O[C@@H]2O[C@@H](C)[C@](O)(C=O)[C@H]2O[C@@H]2O[C@@H](CO)[C@H](O)[C@@H](O)[C@@H]2NC)[C@@H](N/C(N)=N\[H])[C@@H]1O` [SM, streptomycin], the “log CFU in the lungs” value (100 mg/kg injected subcutaneously (solution in water) daily for 3 weeks, control 6.88) was 6.13 log CFU and the “reduction in growth of the TB bacilli compared to the control group” value (injected subcutaneously, 100 mg/kg daily 3 weeks, p<0.01) was “one”.
